Data: patent US9944602B2, “Piperidinone herbicides” (E. I. DU PONT DE NEMOURS AND COMPANY, priority 2014, dated 2018)

Key:
[1] = test system: barnyardgrass (Echinochloa crus-galli); assay: Test A preemergence barnyardgrass; assay type: in vivo; details: 0 to 100 scale
Summary of the method: (§1)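 Seeds sown in loam–sand blend received a directed preemergence soil spray; postemergence plants (2–10 cm, one- to two-leaf stage) were sprayed in the same soil. Chemicals were formulated in non-phytotoxic solvent with surfactant. After ~10 d in greenhouse, injury was rated visually against untreated controls, 0 (no effect) to 100 (complete control).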

[2] = test system: foxtail, giant (giant foxtail, Setaria faberii); assay: Test A preemergence foxtail, giant; assay type: in vivo; details: Setaria faberi, pre-emergence, 240 h, 0 to 100 scale, 0 no effect, 100 complete control, read-out: Foxtail, Giant plant response rating
Summary of the method: as §1

[3] = test system: pigweed (Amaranthus retroflexus); assay: Test A preemergence pigweed; assay type: in vivo; details: Amaranthus retroflexus, pre-emergence, 240 h, 0 to 100 scale, 0 no effect, 100 complete control, read-out: Pigweed plant response rating
Summary of the method: as §1

[4] = test system: barnyardgrass (Echinochloa crus-galli); assay: Test A postemergence barnyardgrass; assay type: in vivo; details: Echinochloa crus-galli, post-emergence, 240 h, 0 to 100 scale, 0 is no effect, 100 is complete control, read-out: Plant response rating, Barnyardgrass
Summary of the method: as §1

[5] = test system: foxtail, giant (giant foxtail, Setaria faberii); assay: Test A postemergence foxtail, giant; assay type: in vivo; details: Setaria faberi, post-emergence, 240 h, 0 to 100 scale, 0 is no effect, 100 is complete control, read-out: Plant response rating, Foxtail, Giant
Summary of the method: as §1

[6] = test system: pigweed (Amaranthus retroflexus); assay: Test A postemergence pigweed; assay type: in vivo; details: Amaranthus retroflexus, post-emergence, 240 h, 0 to 100 scale, 0 is no effect, 100 is complete control, read-out: Plant response rating, Pigweed
Summary of the method: as §1

[7] = test system: wheat (Triticum aestivum); assay: Test A postemergence wheat; assay type: in vivo; details: Triticum aestivum, post-emergence, 240 h, 0 to 100 scale, 0 is no effect, 100 is complete control, read-out: Plant response rating, Wheat
Summary of the method: as §1

corn (Zea mays) = assay: Test A postemergence corn; assay type: in vivo; details: Zea mays, post-emergence, 240 h, 0 to 100 scale, 0 is no effect, 100 is complete control
Summary of the method: as §1

rice (Oryza sativa) [8] = assay: Test B flooded paddy test rice; assay type: in vivo; details: Oryza sativa, Table B, Flood, 250 g ai/ha, scale 0 to 100, read-out: Plant response rating
Summary of the method: (§2)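 Test pots carrying 2-leaf-stage seedlings were flooded to 3 cm above the soil surface when treated. Compound went directly into the standing water. Plants stayed in the greenhouse at that depth for 13 to 15 d before visual comparison with controls.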

[9] = test system: sedge, umbrella (small-flower umbrella sedge, Cyperus difformis); assay: Test B flooded paddy test sedge, umbrella; assay type: in vivo; details: Cyperus difformis, Table B, Flood, 250 g ai/ha, scale 0 to 100, read-out: Plant response rating
Summary of the method: as §2

[10] = test system: ducksalad (Heteranthera limosa); assay: Test B flooded paddy test ducksalad; assay type: in vivo; details: Heteranthera limosa, Table B, Flood, 250 g ai/ha, scale 0 to 100, read-out: Plant response rating
Summary of the method: as §2

[11] = test system: barnyardgrass (Echinochloa crus-galli); assay: Test B flooded paddy test barnyardgrass; assay type: in vivo; details: Echinochloa crus-galli, Table B, Flood, 250 g ai/ha, scale 0 to 100, read-out: Plant response rating
Summary of the method: as §2

rice (Oryza sativa) [12] = assay: Test C flooded paddy test rice; assay type: in vivo; details: Table C, Flood, 1000 g ai/ha, scale 0 to 100
Summary of the method: (§3)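 Test compounds were dosed straight into the flood water of pots holding 2-leaf-stage plants, with water kept 3 cm above the soil. Greenhouse plants were scored visually against controls after 13 to 15 d, from 0 (no effect) to 100 (complete control).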

[13] = test system: sedge, umbrella (small-flower umbrella sedge, Cyperus difformis); assay: Test C flooded paddy test sedge, umbrella; assay type: in vivo; details: Table C, Flood, 1000 g ai/ha, scale 0 to 100
Summary of the method: as §3

[14] = test system: ducksalad (Heteranthera limosa); assay: Test C flooded paddy test ducksalad; assay type: in vivo; details: Table C, Flood, 1000 g ai/ha, scale 0 to 100
Summary of the method: as §3

[15] = test system: barnyardgrass (Echinochloa crus-galli); assay: Test C flooded paddy test barnyardgrass; assay type: in vivo; details: Table C, Flood, 1000 g ai/ha, scale 0 to 100
Summary of the method: as §3

SMILES: O=C1NCCC(c2cccc(C(F)(F)F)c2)C1C(=O)Nc1ccccc1C(F)(F)F (stereo not shown) [Compound 10, 2-oxo-N-[2-(trifluoromethyl)phenyl)-4-[3-(trifluoromethyl)phenyl]-3-piperidinecarboxamide]
- Plant response rating, Barnyardgrass ([1]; 500 g ai/ha, 0 is no effect, 100 is complete control): 90
- pest or weed control at 125 g/ha ([1]; Echinochloa crus-galli, pre-emergence, 240 h, 125 g ai/ha, 0 no effect, 100 complete control, read-out: Barnyardgrass plant response rating): 60%
- pest or weed control at 125 g/ha ([2]; 125 g ai/ha): 90%
- pest or weed control at 500 g/ha ([2]; 500 g ai/ha): 90%
- pest or weed control at 125 g/ha ([3]; 125 g ai/ha): 0%
- pest or weed control at 500 g/ha ([3]; 500 g ai/ha): 0%
- pest or weed control at 125 g/ha ([4]; 125 g ai/ha): 80%
- pest or weed control at 500 g/ha ([4]; 500 g ai/ha): 90%
- pest or weed control at 125 g/ha ([5]; 125 g ai/ha): 40%
- pest or weed control at 500 g/ha ([5]; 500 g ai/ha): 70%
- pest or weed control at 125 g/ha ([6]; 125 g ai/ha): 0%
- pest or weed control at 500 g/ha ([6]; 500 g ai/ha): 0%
- plant injury at 125 g/ha ([7]; 125 g ai/ha): 0%
- plant injury at 500 g/ha ([7]; 500 g ai/ha): 0%
- Corn plant response rating (crop injury, 0 = no effect, 100 = complete kill) at 125 g/ha (corn (Zea mays); 125 g ai/ha): 0%
- Corn plant response rating (crop injury, 0 = no effect, 100 = complete kill) at 500 g/ha (corn (Zea mays); 500 g ai/ha): 0%
- plant injury at 250 g/ha (rice (Oryza sativa) [8]): 10%
- pest or weed control at 250 g/ha [9]: 0%
- pest or weed control at 250 g/ha [10]: 40%
- pest or weed control at 250 g/ha [11]: 0%
- Plant response rating (rice (Oryza sativa) [12]): 10
- Plant response rating [13]: 0
- Plant response rating [14]: 85
- Plant response rating [15]: 65
- melting point: 292 to 295 °C
